# Values quoted from earlier work as cited in patent publication US7022698B2, “Pharmaceutical compositions containing new polymorphic forms of olanzapine and uses thereof” (U & I Pharmaceuticals, Ltd., priority 1999, dated 2006).
# Where two headings read alike, the source gives them in different places.
# Tests used:
# [1] = system: dopamine receptors (D1 to D5)
# [2] = system: serotonin (5-HT) receptors
# [3] = system: α1-adrenergic receptors
# [4] = system: muscarinic cholinergic receptor
# [5] = system: patients with schizophrenia; conditions: 10 mg/day, in comparison with olanzapine 1 mg/day or placebo
# [6] = system: schizophrenia and schizoaffecive and schizophreniform disorders; conditions: for Montgomery-Asberg Depression Rating Scale (MADRS) total score, baseline to endpoint decline: 6-week trial, p=0.001
# [7] = system: inpatients with a diagnosis of psychotic disorders
# [8] = system: inpatients with psychotic depression
# [9] = system: psychotic mood disorders patients and schizophrenic patients
# [10] = system: bipolar type I patients; conditions: mean dose 13.8 mg/day
# [11] = system: patients with Alzheimer's disease (AD)
# [12] = system: patients with Acute Mania; conditions: 5–20 mg/day
structure (smiles),measurement,setting,value
"Cc1cc2c(s1)Nc1ccccc1N=C2N1CCN(C)CC1 [olanzapine, 2-methyl-4-(4-methyl-1-piperazinyl)-10H-thieno-[2,3b][1,5] benzodiazepine]",affinity for dopaminic receptors,[1],nanomolar affinity
same,binding selectivity among dopamine receptors,[1]; D1 to D5,relatively non-selective binding
same,affinity for serotonergic receptors,[2],nanomolar affinity
same,inhibition of 5-HT receptors,"[2]; 5-HT2A, 5-HT2B, 5-HT2C, and 5-HT6 receptors",potent inhibitor
same,affinity for α1-adrenergic receptors,[3],nanomolar affinity
same,inhibition of α-adrenergic receptor,[3],potent inhibitor
same,affinity for muscarinic receptors,[4],nanomolar affinity
same,inhibition of muscarinic cholinergic receptor,[4]; all five subtypes,potent inhibitor
same,mesolimbic and mesocortical selectivity,,mesolimbic and mesocortical selectivity
same,Hamilton Rating Scale for Depression scores,[5],significant reduction
same,"Montgomery-Asberg Depression Rating Scale (MADRS) total score, baseline to endpoint decline",[6],6 point
same,reduction of the MADRS scores,"[6]; subanalysis, schizoaffective patients currently depressed, p=0.002",superior to haloperidol
same,decrease of Brief Psychiatric Rating Scale (BPRS) mania score,"[6]; subanalysis, schizoaffective patients currently manic, p=0.25",as effective as haloperidol
same,overall response rate,[7]; all patients,62%
same,response rate,[7]; bipolar disorder patients,83%
same,response rate,[8],67%
same,"K Axis V subscale scores, baseline to follow-up","[9]; psychotic mood disorders group, psychological impairment, violence, and social skills subscales",statistically significant change
same,patients remaining hospitalized at follow-up,[9]; psychotic mood disorders patient group (24/32),Seventy-five
same,change on the CGI and GAF-EQ,[9]; psychotic mood disorders patients (N=32) and schizophrenic patients (N=18) who continued olanzapine,statistically significant change toward improvement
same,"K Axis V subscale scores, baseline to follow-up","[9]; schizophrenic group, only on the violence subscale",significant change in score only on the violence subscale
same,patients remaining hospitalized at follow-up,[9]; schizophrenic patients (18/18),100%
same,HAM-D score at baseline,[10]; 113 patients,12.2
same,YMRS score at baseline,[10]; 113 patients,25.5
same,HAM-D score on follow-up,"[10]; average 6.7 months, p<0.001",6.5
same,YMRS score on follow-up,"[10]; average 6.7 months, p<0.001",7.5
same,EPS,[10],Few EPS were noted
same,"efficacy in reducing psychotic symptoms, parent study",[11]; 5-mg/day dose,most efficacious
same,"safety, parent study",[11]; 5-mg/day dose,safest
same,"efficacy in reducing psychotic symptoms, parent study","[11]; 10-mg/day dose, relative to placebo",significant efficacy
same,"expression of psychotic symptoms, parent study",[11]; 15-mg/day dose,failed to separate from the placebo group
same,"safety, parent study",[11]; 15-mg/day dose,less tolerated safety profile
same,emergence of psychotic symptoms compared to placebo,[11]; possible AD with agitation/aggression and no or minimal hallucinations and/or delusions,significantly lower emergence of psychotic symptoms
same,percentage of patients who discontinued treatment because of lack of efficacy,[12]; p=0.02 vs placebo,28.6%
same,patients with an improvement of 50% or more in Young Mania Rating Scale total score,[12]; responder analysis,48.6%
O=C(CCCN1CCC(O)(c2ccc(Cl)cc2)CC1)c1ccc(F)cc1 [haloperidol],"Montgomery-Asberg Depression Rating Scale (MADRS) total score, baseline to endpoint decline",[6],3 point
